From ChEMBL document CHEMBL2074229, “Inhibition of drug transport by genistein in multidrug-resistant cells expressing P-glycoprotein” (Biochem Pharmacol, 1997)

Target: ATP-dependent translocase ABCB1 (Homo sapiens, UniProt P08183)
Assay: TP_TRANSPORTER: inhibition of Rhodamine 123 efflux (R123: 10 uM, Genistein: 200 uM) in BALB/c-3T3-1000 cells (MDR1-transfected)
Format: functional, cell-based
Details: mouse, balb/c-3t3-1000, 200 µM

ATP-dependent translocase ABCB1, sequence (P08183 whole entry): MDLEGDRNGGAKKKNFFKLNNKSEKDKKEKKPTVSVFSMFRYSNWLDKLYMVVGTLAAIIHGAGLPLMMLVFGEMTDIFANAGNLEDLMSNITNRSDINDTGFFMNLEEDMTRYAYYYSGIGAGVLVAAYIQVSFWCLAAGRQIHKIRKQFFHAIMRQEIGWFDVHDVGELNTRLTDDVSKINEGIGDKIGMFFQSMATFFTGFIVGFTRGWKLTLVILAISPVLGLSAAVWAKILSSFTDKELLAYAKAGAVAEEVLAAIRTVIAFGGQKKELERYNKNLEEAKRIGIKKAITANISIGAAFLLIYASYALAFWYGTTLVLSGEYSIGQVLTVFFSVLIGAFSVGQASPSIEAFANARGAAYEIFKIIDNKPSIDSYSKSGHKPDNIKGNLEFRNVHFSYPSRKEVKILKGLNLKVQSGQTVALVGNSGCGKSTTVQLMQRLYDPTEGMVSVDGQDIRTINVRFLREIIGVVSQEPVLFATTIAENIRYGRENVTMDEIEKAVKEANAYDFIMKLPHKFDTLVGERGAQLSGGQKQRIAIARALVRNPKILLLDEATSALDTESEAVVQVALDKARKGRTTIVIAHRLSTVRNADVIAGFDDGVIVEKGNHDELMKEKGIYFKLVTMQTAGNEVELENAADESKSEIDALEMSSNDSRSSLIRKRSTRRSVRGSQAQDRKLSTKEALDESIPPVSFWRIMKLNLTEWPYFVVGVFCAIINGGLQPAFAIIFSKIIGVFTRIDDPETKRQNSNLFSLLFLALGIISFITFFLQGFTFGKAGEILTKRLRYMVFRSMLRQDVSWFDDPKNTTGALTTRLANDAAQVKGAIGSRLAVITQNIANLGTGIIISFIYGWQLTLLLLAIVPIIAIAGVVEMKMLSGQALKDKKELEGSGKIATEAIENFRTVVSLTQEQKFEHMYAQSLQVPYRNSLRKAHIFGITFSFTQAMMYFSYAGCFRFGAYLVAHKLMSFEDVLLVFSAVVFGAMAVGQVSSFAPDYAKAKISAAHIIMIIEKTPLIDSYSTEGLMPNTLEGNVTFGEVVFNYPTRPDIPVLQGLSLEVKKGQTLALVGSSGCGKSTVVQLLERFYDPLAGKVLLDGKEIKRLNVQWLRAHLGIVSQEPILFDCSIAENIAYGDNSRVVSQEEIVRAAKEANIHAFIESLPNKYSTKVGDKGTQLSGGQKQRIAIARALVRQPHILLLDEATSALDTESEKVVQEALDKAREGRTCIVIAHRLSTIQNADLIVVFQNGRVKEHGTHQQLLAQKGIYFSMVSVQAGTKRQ

With `O=c1c(-c2ccc(O)cc2)coc2cc(O)cc(O)c12` [GENISTEIN] the Inhibition was “inhibitor [50-60 % inhibition]”.
